Source: patent publication US10865191B2, “Heterocyclic compounds useful as modulators of TNF alpha” (BRISTOL-MYERS SQUIBB COMPANY, priority 2015, dated 2020)
pIC50: −log10 of the molar value. Like-named read-outs stand apart in the source and are kept apart here.

Molecular target: TNFα (Homo sapiens, UniProt P01375)
Assay: TNF induced HEK-Blue assay (NF-kB-driven secreted alkaline phosphatase reporter)
Format: cell-based
Settings: TNFα 0.5 ng/mL, HEK-Blue-CD40L cells, 18 h
Summary of the method: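 HEK-Blue-CD40L cells (NF-kB-driven SEAP reporter), 20,000/well, added after 30 min pre-incubation of compound (0.004–25 μM final) with TNFα 0.5 ng/mL final at 37 °C; 18 h incubation. SEAP read with QUANTI-Blue at 620 nm; IC50 from 4-parameter logistic fit, normalized to unstimulated and stimulated DMSO controls.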

[1] = read-out: TNF induced HEK-Blue assay IC50 value

TNFα, sequence (P01375 77-233 limits assumed): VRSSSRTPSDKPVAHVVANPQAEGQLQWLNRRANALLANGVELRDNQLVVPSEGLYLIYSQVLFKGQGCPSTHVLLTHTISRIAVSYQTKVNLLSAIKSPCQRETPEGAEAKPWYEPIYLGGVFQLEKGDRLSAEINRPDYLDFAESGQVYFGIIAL

pIC50 [1] | pIC50 (TNF induced HEK-Blue assay IC50 value) | SMILES
> 6.00 |  | CC(Nc1c(Cl)cnc2cc(F)c(-c3cnc(C(O)CN4CCC(C(=O)O)CC4)nc3)cc12)c1ccccc1F (single isomer, unassigned) [Example 610, 1-(2-(5-(3-chloro-7-fluoro-4-((1-(2-fluorophenyl)ethyl)amino)quinolin-6-yl)pyrimidin-2-yl)-2-hydroxyethyl) piperidine-4-carboxylic acid]
 | > 6.00 | Cc1ccc(C)c(Nc2c(Cl)c(C)nc3ccc(-c4cnc(C(C)(C)O)nc4)cc23)c1 [Example 1, 2-(5-(3-chloro-4-((2,5-dimethylphenyl)amino)-2-methylquinolin-6-yl)pyrimidin-2-yl)propan-2-ol]
5.00 to 6.00 |  | CCOC(=O)c1nc2ccc(-c3ccc(C#N)nc3)cc2c(Nc2cc(C)ccc2C)c1Cl [Example 5, ethyl 3-chloro-6-(6-cyanopyridin-3-yl)-4-((2,5-dimethylphenyl)amino)quinoline-2-carboxylate]
5.00 to 6.00 |  | Cc1ccc(C)c(Nc2c(Cl)c(C)nc3ccc(-c4ccc(CN5CCN(C(=O)OC(C)(C)C)CC5)cc4)cc23)c1 [Example 6, tert-butyl 4-(4-(3-chloro-4-((2,5-dimethylphenyl)amino)-2-methylquinolin-6-yl)benzyl)piperazine-1-carboxylate]
> 6.00 |  | Cc1ccc(C)c(Nc2c(Cl)c(C)nc3ccc(-c4ccc(CN5CCNCC5)cc4)cc23)c1 [Example 7, 3-chloro-N-(2,5-dimethylphenyl)-2-methyl-6-(4-(piperazin-1-ylmethyl)phenyl)quinolin-4-amine]
> 6.00 |  | CNC(=O)c1ccc(-c2ccc3nc(C)c(Cl)c(Nc4cc(C)ccc4C)c3c2)cn1 [Example 8, 5-(3-chloro-4-((2,5-dimethylphenyl)amino)-2-methylquinolin-6-yl)-N-methylpicolinamide]
4.60 to 5.00 |  | Cc1ccc(C)c(Nc2c(Cl)c(C)nc3ccc(-c4ccc(C(=O)O)nc4)cc23)c1 [Example 9, 5-(3-chloro-4-((2,5-dimethylphenyl)amino)-2-methylquinolin-6-yl)picolinic acid]
4.60 to 5.00 |  | O=C(O)CNCc1ccc(-c2ccc3ncc(Cl)c(N[C@@H](c4ccccc4F)C(F)F)c3c2)cc1 [Example 13, (S)-(4-(3-chloro-4-((2,2-difluoro-1-(2-fluorophenyl)ethyl)amino)quinolin-6-yl)benzyl)glycine]
> 6.00 |  | O=C(O)CN1CCN(c2ccc(-c3ccc4ncc(Cl)c(N[C@@H](c5ccccc5F)C(F)F)c4c3)cn2)CC1 [Example 15, (S)-2-(4-(5-(3-chloro-4-((2,2-difluoro-1-(2-fluorophenyl)ethyl)amino)quinolin-6-yl)pyridin-2-yl)piperazin-1-yl)acetic acid]
> 6.00 |  | O=C(O)CN1CCN(c2ccc(-c3ccc4ncc(Cl)c(N[C@@H](c5ccccc5F)C(F)F)c4c3)cc2)CC1 [Example 16, (S)-2-(4-(4-(3-chloro-4-((2,2-difluoro-1-(2-fluorophenyl)ethyl)amino)quinolin-6-yl)phenyl)piperazin-1-yl)acetic acid]
5.00 to 6.00 |  | Cc1ccc(C)c(Nc2c(Cl)c(C(=O)N(C)C)nc3ccc(-c4ccc(C#N)nc4)cc23)c1 [Example 34, 3-chloro-6-(6-cyanopyridin-3-yl)-4-((2,5-dimethylphenyl)amino)-N,N-dimethylquinoline-2-carboxamide]
5.00 to 6.00 |  | Cc1ccc(C)c(Nc2c(Cl)c(C(=O)Nc3ccccc3)nc3ccc(-c4ccc(C#N)nc4)cc23)c1 [Example 35, 3-chloro-6-(6-cyanopyridin-3-yl)-4-((2,5-dimethylphenyl)amino)-N-phenylquinoline-2-carboxamide]
4.60 to 5.00 |  | Cc1ccc(C)c(Nc2c(Cl)c(C(=O)Nc3cccnc3)nc3ccc(-c4ccc(C(N)=O)nc4)cc23)c1 [Example 37, 6-(6-carbamoylpyridin-3-yl)-3-chloro-4-((2,5-dimethylphenyl)amino)-N-(pyridin-3-yl) quinoline-2-carboxamide]
5.00 to 6.00 |  | Cc1ccc(C)c(Nc2c(Cl)c(CN=[N+]=[N-])nc3ccc(-c4ccc(C#N)nc4)cc23)c1 [Example 42, 5-(2-(azidomethyl)-3-chloro-4-((2,5-dimethylphenyl)amino)quinolin-6-yl)picolinonitrile]
> 6.00 |  | Cc1ccc(C)c(Nc2c(Cl)c(CO)nc3ccc(-c4cnc(C(C)(C)O)nc4)cc23)c1 [Example 44, 2-(5-(3-chloro-4-((2,5-dimethylphenyl)amino)-2-(hydroxymethyl)quinolin-6-yl)pyrimidin-2-yl)propan-2-ol]

Continued, molecule first:

SMILES | pIC50 [1] | pIC50 (TNF induced HEK-Blue assay IC50 value)
CC(Nc1c(Cl)cnc2cc(F)c(-c3cnc(N4CCN(C(=O)[C@H](N)CO)CC4)nc3)cc12)c1ccccc1F (single isomer, unassigned) [Example 606] | > 6.00 | 
CC(Nc1c(Cl)cnc2cc(F)c(-c3cnc(N4CCN(C(=O)[C@H](N)CC(=O)O)CC4)nc3)cc12)c1ccccc1F (single isomer, unassigned) [Example 607] | > 6.00 | 
CC(Nc1c(Cl)cnc2cc(F)c(-c3cnc(N4CCNCC4)nc3)cc12)c1ccccc1F (single isomer, unassigned) [Example 608, 3-chloro-7-fluoro-N-(1-(2-fluorophenyl)ethyl)-6-(2-(piperazin-1-yl)pyrimidin-5-yl)quinolin-4-amine] | > 6.00 | 
CC(Nc1c(Cl)cnc2cc(F)c(-c3cnc(N4C[C@H]5CC[C@@H](C4)C5C(=O)O)nc3)cc12)c1ccccc1F (single isomer, unassigned) [Example 611] | > 6.00 | 
CC(Nc1c(Cl)cnc2c(F)cc(-c3cnc(C(C)(C)O)nc3)cc12)c1cc(Br)ccc1F (single isomer, unassigned) [Example 612, 2-(5-(4-((1-(5-bromo-2-fluorophenyl)ethyl)amino)-3-chloro-8-fluoroquinolin-6-yl)pyrimidin-2-yl)propan-2-ol] | > 6.00 | 
Cc1ccc(C)c(NCc2nc3ccc(-c4cnn(C)c4)cc3c(Nc3cc(C)ccc3C)c2Cl)c1 [Example 2, 3-chloro-N-(2,5-dimethylphenyl)-2-(((2,5-dimethylphenyl)amino)methyl)-6-(1-methyl-1H-pyrazol-4-yl)quinolin-4-amine] | 4.60 to 5.00 | 
Cc1ccc(C)c(NCc2nc3ccc(-c4ccc(C#N)nc4)cc3c(Nc3cc(C)ccc3C)c2Cl)c1 [Example 3, 5-(3-chloro-4-((2,5-dimethylphenyl)amino)-2-(((2,5-dimethylphenyl)amino)methyl)quinolin-6-yl)picolinonitrile] | 5.00 to 6.00 | 
CC(C)(O)c1ncc(-c2ccc3ncc(Cl)c(CNc4ccccc4)c3c2)cn1 [Example 11, 2-(5-(3-chloro-4-((phenylamino)methyl)quinolin-6-yl)pyrimidin-2-yl)propan-2-ol] | 4.60 to 5.00 | 
COC(=O)CN1CCN(c2ncc(-c3ccc4ncc(Cl)c(N[C@@H](c5ccccc5F)C(F)F)c4c3)cn2)CC1 [Example 14, (S)-methyl 2-(4-(5-(3-chloro-4-((2,2-difluoro-1-(2-fluorophenyl)ethyl)amino)quinolin-6-yl)pyrimidin-2-yl)piperazin-1-yl)acetate] | > 6.00 | 
CNc1ncc(-c2ccc3ncc(Cl)c(N[C@H](C)c4ccccc4F)c3c2)cn1 [Example 17, (R)-3-chloro-N-(1-(2-fluorophenyl)ethyl)-6-(2-(methylamino)pyrimidin-5-yl)quinolin-4-amine] | 4.60 to 5.00 | 
CCNCc1ccc(-c2ccc3ncc(Cl)c(N[C@H](C)c4ccccc4F)c3c2)cc1 [Example 29, (R)-3-chloro-6-(4-((ethylamino)methyl)phenyl)-N-(1-(2-fluorophenyl)ethyl)quinolin-4-amine] | 5.00 to 6.00 | 
C[C@@H](Nc1c(Cl)cnc2ccc(-c3ccc(CN4CCC4)cc3)cc12)c1ccccc1F [Example 30, (R)-6-(4-(azetidin-1-ylmethyl)phenyl)-3-chloro-N-(1-(2-fluorophenyl)ethyl)quinolin-4-amine] | 4.60 to 5.00 | 
Cc1ccc(C)c(Nc2c(Cl)c(C(=O)O)nc3ccc(-c4ccc(C#N)nc4)cc23)c1 [Example 31, 3-chloro-6-(6-cyanopyridin-3-yl)-4-((2,5-dimethylphenyl)amino)quinoline-2-carboxylic acid] | 5.00 to 6.00 | 
Cc1ccc(C)c(Nc2c(Cl)c(C(=O)Nc3cccnc3)nc3ccc(-c4ccc(C#N)nc4)cc23)c1 [Example 32, 3-chloro-6-(6-cyanopyridin-3-yl)-4-((2,5-dimethylphenyl)amino)-N-(pyridin-3-yl)quinoline-2-carboxamide] | > 6.00 | 
CNC(=O)c1nc2ccc(-c3ccc(C#N)nc3)cc2c(Nc2cc(C)ccc2C)c1Cl [Example 33, 3-chloro-6-(6-cyanopyridin-3-yl)-4-((2,5-dimethylphenyl)amino)-N-methylquinoline-2-carboxamide] | 5.00 to 6.00 | 
Cc1ccc(C)c(Nc2c(Cl)c(C(=O)Nc3ccncc3)nc3ccc(-c4ccc(C#N)nc4)cc23)c1 [Example 36, 3-chloro-6-(6-cyanopyridin-3-yl)-4-((2,5-dimethylphenyl)amino)-N-(pyridin-4-yl)quinoline-2-carboxamide] | > 6.00 | 
Cc1ccc(C)c(Nc2c(Cl)c(CO)nc3ccc(-c4ccc(C#N)nc4)cc23)c1 [Example 40, 5-(3-chloro-4-((2,5-dimethylphenyl)amino)-2-(hydroxymethyl)quinolin-6-yl)picolinonitrile] | 5.00 to 6.00 | 
Cc1ccc(C)c(Nc2c(Cl)c(COc3cccnc3)nc3ccc(-c4ccc(C#N)nc4)cc23)c1 [Example 41, 5-(3-chloro-4-((2,5-dimethylphenyl)amino)-2-((pyridin-3-yloxy)methyl)quinolin-6-yl)picolinonitrile] | 5.00 to 6.00 | 
Cc1ccc(C)c(Nc2c(Cl)c(CN)nc3ccc(-c4ccc(C#N)nc4)cc23)c1 [Example 43, 5-(2-(aminomethyl)-3-chloro-4-((2,5-dimethylphenyl)amino)quinolin-6-yl)picolinonitrile] | 5.00 to 6.00 | 
